Reference: the supplement of paper PMC13380429

Legend:
[1] = tested on: Vero E6; experiment: drug sensitivity score (DSS) for viability; higher = more toxic; extreme values may be limits of the assay; details: 72 h
[2] = tested on: Calu-3; experiment: as above; details: 72 h
[3] = tested on: U2OS; experiment: as above; details: 72 h
[4] = tested on: HepG2; experiment: as above; details: 72 h
[5] = tested on: Caco-2; experiment: as above; details: 72 h
[6] = tested on: A549-ACE2 infected with SARS-CoV-2; experiment: cell count relative to DMSO; higher = less toxic; details: 24 h
[7] = tested on: A549-ACE2; experiment: drug-induced phospholipidosis relative to tamoxifen; higher = more phospholipidosis
[8] = tested on: Vero E6; experiment: relative viability EC50 (midpoint between 100% and the lowest measured viability); higher = less toxic; details: 72 h
[9] = tested on: Calu-3; experiment: as above; details: 72 h
[10] = tested on: U2OS; experiment: as above; details: 72 h
[11] = tested on: Caco-2; experiment: as above; details: 72 h
[12] = tested on: Vero E6; experiment: cell viability relative to DMSO; higher = less toxic; details: 72 h
[13] = tested on: Calu-3; experiment: as above; details: 72 h
[14] = tested on: U2OS; experiment: as above; details: 72 h
[15] = tested on: HepG2; experiment: as above; details: 72 h
[16] = tested on: Caco-2; experiment: as above; details: 72 h
[17] = tested on: A549-ACE2 infected with SARS-CoV-2; experiment: SARS-CoV-2 infection rate relative to DMSO; higher = more infection; details: 24 h
[18] = tested on: A549-ACE2 infected with SARS-CoV-2; experiment: morphology score (similarity to uninfected cells); higher = more like uninfected cells; details: 24 h
[19] = tested on: A549-ACE2; experiment: phospholipidosis EC50; higher = less potent phospholipidosis inducer
[20] = tested on: HepG2; experiment: relative viability EC50 (midpoint between 100% and the lowest measured viability); higher = less toxic; details: 72 h

SMILES: Cc1[nH]c(/C=C2\C(=O)Nc3ccc(S(=O)(=O)N(C)c4cccc(Cl)c4)cc32)c(C)c1C(=O)N1CCN(C)CC1
- drug sensitivity score [1]: 0
- drug sensitivity score [2]: 0.3
- drug sensitivity score [3]: 0
- drug sensitivity score [4]: 1.3
- drug sensitivity score [5]: 0.5
- cell count ([6]; 0.3 µM): 94%
- cell count ([6]; 3 µM): 105%
- cell count ([6]; 10 µM): 70%
- cell count ([6]; 30 µM): 85%
- drug-induced phospholipidosis ([7]; 0.3 µM, 24 h): 22.5%
- drug-induced phospholipidosis ([7]; 0.3 µM, 48 h): 12.7%
- drug-induced phospholipidosis ([7]; 0.3 µM, 72 h): 9.3%
- drug-induced phospholipidosis ([7]; 0.833333 µM, 24 h): 42.3%
- drug-induced phospholipidosis ([7]; 0.833333 µM, 48 h): 30.6%
- drug-induced phospholipidosis ([7]; 0.833333 µM, 72 h): 20.7%
- drug-induced phospholipidosis ([7]; 3.33333 µM, 24 h): 133%
- drug-induced phospholipidosis ([7]; 3.33333 µM, 48 h): 129%
- drug-induced phospholipidosis ([7]; 3.33333 µM, 72 h): 128%
- drug-induced phospholipidosis ([7]; 6.66667 µM, 24 h): 230%
- drug-induced phospholipidosis ([7]; 10 µM, 24 h): 269%
- drug-induced phospholipidosis ([7]; 10 µM, 48 h): 333%
- drug-induced phospholipidosis ([7]; 30 µM, 24 h): 324%
- drug-induced phospholipidosis ([7]; 30 µM, 48 h): 340%
- relative viability EC50 [8]: > 10 µM
- relative viability EC50 [9]: > 10 µM
- relative viability EC50 [10]: > 10 µM
- relative viability EC50 [11]: > 10 µM
- cell viability ([12]; 1 nM): 101%
- cell viability ([12]; 10 nM): 102%
- cell viability ([12]; 100 nM): 94.3%
- cell viability ([12]; 1000 nM): 107%
- cell viability ([12]; 10000 nM): 88.1%
- cell viability ([13]; 1 nM): 106%
- cell viability ([13]; 10 nM): 93.5%
- cell viability ([13]; 100 nM): 112%
- cell viability ([13]; 1000 nM): 101%
- cell viability ([13]; 10000 nM): 83.8%
- cell viability ([14]; 1 nM): 104%
- cell viability ([14]; 10 nM): 98.2%
- cell viability ([14]; 100 nM): 106%
- cell viability ([14]; 1000 nM): 101%
- cell viability ([14]; 10000 nM): 91%
- cell viability ([15]; 1 nM): 106%
- cell viability ([15]; 10 nM): 105%
- cell viability ([15]; 100 nM): 93.5%
- cell viability ([15]; 1000 nM): 103%
- cell viability ([15]; 10000 nM): 66.5%
- cell viability ([16]; 1 nM): 96%
- cell viability ([16]; 10 nM): 98.5%
- cell viability ([16]; 100 nM): 99.9%
- cell viability ([16]; 1000 nM): 97.5%
- cell viability ([16]; 10000 nM): 85.2%
- SARS-CoV-2 infection rate ([17]; 0.3 µM): 89%
- SARS-CoV-2 infection rate ([17]; 3 µM): 46%
- SARS-CoV-2 infection rate ([17]; 10 µM): 20%
- SARS-CoV-2 infection rate ([17]; 30 µM): 34%
- morphology score ([18]; 0.3 µM): 0.29
- morphology score ([18]; 3 µM): 0.61
- morphology score ([18]; 10 µM): 0.45
- morphology score ([18]; 30 µM): 0.53
- phospholipidosis EC50 ([19]; 24 h): 4.77 µM
- phospholipidosis EC50 ([19]; 48 h): 3.94 µM

SMILES: O=c1[nH]c2ccccc2n1C1CCN(CCCC(c2ccc(F)cc2)c2ccc(F)cc2)CC1 [pimozide]
- drug sensitivity score [1]: 0
- drug sensitivity score [2]: 0
- drug sensitivity score [3]: 0
- drug sensitivity score [4]: 0
- drug sensitivity score [5]: 0
- cell count ([6]; 0.3 µM): 92%
- cell count ([6]; 3 µM): 108%
- cell count ([6]; 10 µM): 113%
- cell count ([6]; 30 µM): 86%
- drug-induced phospholipidosis ([7]; 0.3 µM, 24 h): 4.09%
- drug-induced phospholipidosis ([7]; 0.3 µM, 48 h): 4.99%
- drug-induced phospholipidosis ([7]; 0.3 µM, 72 h): 6.59%
- drug-induced phospholipidosis ([7]; 0.833333 µM, 24 h): 5.84%
- drug-induced phospholipidosis ([7]; 0.833333 µM, 48 h): 5.4%
- drug-induced phospholipidosis ([7]; 0.833333 µM, 72 h): 6.94%
- drug-induced phospholipidosis ([7]; 3.33333 µM, 24 h): 24.5%
- drug-induced phospholipidosis ([7]; 3.33333 µM, 48 h): 17.8%
- drug-induced phospholipidosis ([7]; 3.33333 µM, 72 h): 22.7%
- drug-induced phospholipidosis ([7]; 6.66667 µM, 24 h): 59.8%
- drug-induced phospholipidosis ([7]; 6.66667 µM, 48 h): 56.9%
- drug-induced phospholipidosis ([7]; 6.66667 µM, 72 h): 60.3%
- drug-induced phospholipidosis ([7]; 10 µM, 24 h): 64.4%
- drug-induced phospholipidosis ([7]; 10 µM, 48 h): 81%
- drug-induced phospholipidosis ([7]; 10 µM, 72 h): 85.3%
- drug-induced phospholipidosis ([7]; 30 µM, 24 h): 78%
- drug-induced phospholipidosis ([7]; 30 µM, 48 h): 99.5%
- drug-induced phospholipidosis ([7]; 30 µM, 72 h): 111%
- relative viability EC50 [8]: > 10 µM
- relative viability EC50 [9]: > 10 µM
- relative viability EC50 [10]: > 10 µM
- relative viability EC50 [20]: > 10 µM
- relative viability EC50 [11]: > 10 µM
- cell viability ([12]; 1 nM): 106%
- cell viability ([12]; 10 nM): 88.7%
- cell viability ([12]; 100 nM): 104%
- cell viability ([12]; 1000 nM): 94.2%
- cell viability ([12]; 10000 nM): 104%
- cell viability ([13]; 1 nM): 100%
- cell viability ([13]; 10 nM): 95.5%
- cell viability ([13]; 100 nM): 95.2%
- cell viability ([13]; 1000 nM): 100%
- cell viability ([13]; 10000 nM): 93.9%
- cell viability ([14]; 1 nM): 99.4%
- cell viability ([14]; 10 nM): 102%
- cell viability ([14]; 100 nM): 99.5%
- cell viability ([14]; 1000 nM): 104%
- cell viability ([14]; 10000 nM): 94.6%
- cell viability ([15]; 1 nM): 119%
- cell viability ([15]; 10 nM): 114%
- cell viability ([15]; 100 nM): 108%
- cell viability ([15]; 1000 nM): 85.2%
- cell viability ([15]; 10000 nM): 104%
- cell viability ([16]; 1 nM): 92.2%
- cell viability ([16]; 10 nM): 99.1%
- cell viability ([16]; 100 nM): 98%
- cell viability ([16]; 1000 nM): 94.6%
- cell viability ([16]; 10000 nM): 95.7%
- SARS-CoV-2 infection rate ([17]; 0.3 µM): 99%
- SARS-CoV-2 infection rate ([17]; 3 µM): 83%
- SARS-CoV-2 infection rate ([17]; 10 µM): 20%
- SARS-CoV-2 infection rate ([17]; 30 µM): 33%
- morphology score ([18]; 0.3 µM): -0.1
- morphology score ([18]; 3 µM): 0.46
- morphology score ([18]; 10 µM): 0.79
- morphology score ([18]; 30 µM): 0.31
- phospholipidosis EC50 ([19]; 24 h): 4.66 µM
- phospholipidosis EC50 ([19]; 48 h): 6.29 µM
- phospholipidosis EC50 ([19]; 72 h): 6.67 µM
